Data from US20170144985A1, “DIAMINOTRIAZINE COMPOUND USEFUL AS HERBICIDE” (BASF SE, priority 2014, published 2017).

Tests used:
Assay in all cases: greenhouse pre-emergence herbicidal test
[1] = tested on: APESV; type: in vivo, Apera spica-venti; conditions: application rate 0.5 kg/ha, scale from 0 to 100, APESV
Description: (§1) The seeds of the test plants were sown separately for each species. For the pre-emergence treatment, the active ingredients, which had been suspended or emulsified in water, were applied directly after sowing by means of finely distributing nozzles. The containers were irrigated gently to promote germination and growth and subsequently covered with transparent plastic hoods until the plants had rooted. This cover caused uniform germination of the test plants, unless this had been impaired by the active ingredients. Depending on the species, the plants were kept at 10-25° C. or 20-35° C., respectively. The test period extended over 2 to 4 weeks. During this time, the plants were tended, and their response to the individual treatments was evaluated. Evaluation was carried out using a scale from 0 to 100. 100 means no emergence of the plants, or complete destruction of at least the aerial moieties, and 0 means no damage, or normal course of growth. A moderate herbicidal activity is given at values of at least 60, a good herbicidal activity is given at values of at least 70, and a very good herbicidal activity is given at values of at least 85. The plants used in the greenhouse experiments were of the following species: [table]

[2] = tested on: AMARE; type: in vivo, Amaranthus retroflexus; conditions: application rate 0.5 kg/ha, scale from 0 to 100, AMARE
Description: as §1

[3] = tested on: ALOMY; type: in vivo, Alopecurus myosuroides; conditions: application rate 0.5 kg/ha, scale from 0 to 100, ALOMY
Description: as §1

In the case of `Nc1nc(Nc2c(F)c(F)nc(F)c2F)nc(N2CCCC2)n1` [Example 1, 6-pyrrolidin-1-yl-N4-(2,3,5,6-tetrafluoro-4-pyridyl)-1,3,5-triazine-2,4-diamine], the herbicidal activity [1] was “very good (a very good herbicidal activity is given at values of at least 85)”, the herbicidal activity [2] was “very good (a very good herbicidal activity is given at values of at least 85)” and the herbicidal activity [3] was “very good (a very good herbicidal activity is given at values of at least 85)”.
